Measured values taken from PubChem BioAssay (NCI).
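Five compound concentrations were applied to cells in 96-well plates for 48 hours; endpoints were derived by simple linear interpolation of the resulting dose-response curve. GI50 = concentration required for 50% inhibition of growth. TGI is the concentration that stops growth completely.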

Tests used:
Test in all cases: NCI anticancer screen, dose series, 48 h; in the data active = GI50 below about 0.43 µM; inactive = the rest
HL-60(TB) leukemia = system: HL-60(TB) leukemia
M14 melanoma = system: M14 melanoma
DU-145 prostate = system: DU-145 prostate
RXF 393 renal = system: RXF 393 renal
HOP-92 NSCLC = system: HOP-92 NSCLC
IGROV1 ovarian = system: IGROV1 ovarian
OVCAR-3 ovarian = system: OVCAR-3 ovarian
CCRF-CEM leukemia = system: CCRF-CEM leukemia
MCF7 breast = system: MCF7 breast
HCT-15 colon = system: HCT-15 colon
SNB-19 CNS = system: SNB-19 CNS
SN12C renal = system: SN12C renal
SW-620 colon = system: SW-620 colon
MOLT-4 leukemia = system: MOLT-4 leukemia
EKVX NSCLC = system: EKVX NSCLC
NCI/ADR-RES ovarian = system: NCI/ADR-RES ovarian
786-0 renal = system: 786-0 renal
NCI-H522 lung = system: NCI-H522 lung
MDA-MB-435 = system: MDA-MB-435
HCT-116 colon = system: HCT-116 colon
RPMI-8226 leukemia = system: RPMI-8226 leukemia
MDA-MB-231 breast = system: MDA-MB-231 breast
SR leukemia = system: SR leukemia
A498 renal = system: A498 renal
T-47D breast = system: T-47D breast
HT29 colon = system: HT29 colon
A549 NSCLC = system: A549 NSCLC
UACC-257 melanoma = system: UACC-257 melanoma
SK-MEL-28 melanoma = system: SK-MEL-28 melanoma
HCC-2998 colon = system: HCC-2998 colon
SNB-75 CNS = system: SNB-75 CNS
KM12 colon = system: KM12 colon
U251 CNS = system: U251 CNS
SK-MEL-5 melanoma = system: SK-MEL-5 melanoma
K-562 leukemia = system: K-562 leukemia
BT-549 breast = system: BT-549 breast
OVCAR-4 ovarian = system: OVCAR-4 ovarian
MDA-MB-468 breast = system: MDA-MB-468 breast
OVCAR-5 ovarian = system: OVCAR-5 ovarian
NCI-H226 lung = system: NCI-H226 lung
NCI-H460 lung = system: NCI-H460 lung
HS 578T breast = system: HS 578T breast
UACC-62 melanoma = system: UACC-62 melanoma
SF-539 CNS = system: SF-539 CNS
CAKI-1 renal = system: CAKI-1 renal
UO-31 renal = system: UO-31 renal
PC-3 prostate = system: PC-3 prostate
SK-MEL-2 melanoma = system: SK-MEL-2 melanoma
TK-10 renal = system: TK-10 renal
ACHN renal = system: ACHN renal
SF-268 CNS = system: SF-268 CNS
MALME-3M melanoma = system: MALME-3M melanoma
OVCAR-8 ovarian = system: OVCAR-8 ovarian
NCI-H23 lung = system: NCI-H23 lung
HOP-62 NSCLC = system: HOP-62 NSCLC
SF-295 CNS = system: SF-295 CNS
COLO 205 colon = system: COLO 205 colon
SK-OV-3 ovarian = system: SK-OV-3 ovarian
LOX IMVI melanoma = system: LOX IMVI melanoma

Brc1ccc(N/N=C/c2c[nH]c3ccccc23)nc1
> 100 µM: TGI (HL-60(TB) leukemia) | TGI (M14 melanoma) | TGI (DU-145 prostate) | TGI (IGROV1 ovarian) | TGI (OVCAR-3 ovarian) | TGI (CCRF-CEM leukemia) | TGI (MCF7 breast) | TGI (HCT-15 colon) | TGI (SN12C renal) | TGI (SW-620 colon) | TGI (MOLT-4 leukemia) | TGI (EKVX NSCLC) | TGI (NCI/ADR-RES ovarian) | TGI (786-0 renal) | TGI (MDA-MB-435) | TGI (HCT-116 colon) | TGI (RPMI-8226 leukemia) | TGI (SR leukemia) | TGI (A498 renal) | TGI (T-47D breast) | TGI (HT29 colon) | TGI (A549 NSCLC) | TGI (UACC-257 melanoma) | TGI (SK-MEL-28 melanoma) | TGI (HCC-2998 colon) | TGI (KM12 colon) | TGI (U251 CNS) | TGI (SK-MEL-5 melanoma) | TGI (K-562 leukemia) | TGI (BT-549 breast) | TGI (OVCAR-4 ovarian) | TGI (OVCAR-5 ovarian) | TGI (NCI-H226 lung) | TGI (NCI-H460 lung) | TGI (HS 578T breast) | TGI (UACC-62 melanoma) | TGI (SF-539 CNS) | TGI (CAKI-1 renal) | TGI (UO-31 renal) | TGI (PC-3 prostate) | TGI (SK-MEL-2 melanoma) | TGI (TK-10 renal) | TGI (ACHN renal) | TGI (SF-268 CNS) | TGI (MALME-3M melanoma) | TGI (OVCAR-8 ovarian) | TGI (NCI-H23 lung) | TGI (SF-295 CNS) | TGI (COLO 205 colon) | TGI (SK-OV-3 ovarian) | TGI (LOX IMVI melanoma)
8.47 µM: TGI (MDA-MB-231 breast)
6.1 µM: TGI (MDA-MB-468 breast)
97.9 µM: TGI (SNB-75 CNS)
59.3 µM: TGI (HOP-62 NSCLC)
57.6 µM: TGI (HOP-92 NSCLC)
46.4 µM: TGI (SNB-19 CNS)
80.9 µM: TGI (RXF 393 renal)
inactive: GI50 (HL-60(TB) leukemia) 2.81 µM | GI50 (M14 melanoma) 78.5 µM | GI50 (DU-145 prostate) 20.5 µM | GI50 (RXF 393 renal) 2.5 µM | GI50 (HOP-92 NSCLC) 6.66 µM | GI50 (IGROV1 ovarian) 1.63 µM | GI50 (OVCAR-3 ovarian) 8.63 µM | GI50 (CCRF-CEM leukemia) 0.839 µM | GI50 (MCF7 breast) 2.43 µM | GI50 (HCT-15 colon) 9.19 µM | GI50 (SNB-19 CNS) 11.4 µM | GI50 (SN12C renal) 2.28 µM | GI50 (SW-620 colon) 76 µM | GI50 (MOLT-4 leukemia) 2.67 µM | GI50 (EKVX NSCLC) 4.44 µM | GI50 (NCI/ADR-RES ovarian) 7.03 µM | GI50 (786-0 renal) 13.2 µM | GI50 (NCI-H522 lung) 2.53 µM | GI50 (MDA-MB-435) 79.4 µM | GI50 (HCT-116 colon) 13.2 µM | GI50 (RPMI-8226 leukemia) 3.07 µM | GI50 (MDA-MB-231 breast) 2.2 µM | GI50 (SR leukemia) 2.28 µM | GI50 (A498 renal) 35.2 µM | GI50 (T-47D breast) 3.97 µM | GI50 (HT29 colon) 29.4 µM | GI50 (A549 NSCLC) 12.6 µM | GI50 (UACC-257 melanoma) > 100 µM | GI50 (SK-MEL-28 melanoma) > 100 µM | GI50 (HCC-2998 colon) 9.35 µM | GI50 (KM12 colon) 3.68 µM | GI50 (U251 CNS) 21 µM | GI50 (SK-MEL-5 melanoma) 25.6 µM | GI50 (K-562 leukemia) 4.05 µM | GI50 (OVCAR-4 ovarian) 77.9 µM | GI50 (MDA-MB-468 breast) 1.88 µM | GI50 (OVCAR-5 ovarian) > 100 µM | GI50 (NCI-H226 lung) 3.78 µM | GI50 (NCI-H460 lung) 14.1 µM | GI50 (HS 578T breast) 7.45 µM | GI50 (UACC-62 melanoma) 37.3 µM | GI50 (SF-539 CNS) 4.7 µM | GI50 (CAKI-1 renal) 4.35 µM | GI50 (UO-31 renal) 1.46 µM | GI50 (PC-3 prostate) 4.83 µM | GI50 (SK-MEL-2 melanoma) > 100 µM | GI50 (TK-10 renal) 48 µM | GI50 (ACHN renal) 11.6 µM | GI50 (SF-268 CNS) 4.15 µM | GI50 (MALME-3M melanoma) > 100 µM | GI50 (OVCAR-8 ovarian) 26.3 µM | GI50 (NCI-H23 lung) > 100 µM | GI50 (HOP-62 NSCLC) 11 µM | GI50 (SF-295 CNS) 19.1 µM | GI50 (COLO 205 colon) > 100 µM | GI50 (SK-OV-3 ovarian) 56.2 µM | GI50 (LOX IMVI melanoma) 6.47 µM
28 µM: TGI (NCI-H522 lung)
active: GI50 (SNB-75 CNS) 0.385 µM | GI50 (BT-549 breast) 0.17 µM
